The text below walks through data of patent US8507219B2, “Method of treating inflammation with statins” (MUSC Foundation for Research Development, priority 1997, dated 2013).

The conditions of data set [1]: in vivo; cited from earlier work.
Data set [2] relates to X-ALD fibroblasts.
For data set [3] the following is noted: human, in vivo.
A short description of data set [4]: Plasma very-long-chain fatty acids (C26:0) in X-ALD patients on lovastatin. The class given is in vivo, human.
Data set [5] concerns astrocytes, microglia or macrophages. From the text: Cell viability Cytotoxic effects of the inhibitors were deter-mined by measuring the cell viability by Trypan blue exclusion.
Data set [6] has as its system TNF-α production in rat resident macrophages. Briefly: LPS-/IFN-γ-induced TNF-α production (ELISA) in rat macrophages. To be noted: for inhibition at 20000 µM: Rattus norvegicus, Macrophage. It counts as cell-based. The protocol: Resident macrophages cultured in serum-free RPMI 1640 medium received 20 mM NAC or 100 μM PDTC 2 h before the addition of stimuli. When stimuli were used separately their concentrations were: LPS, 1.0 μg/ml; IFN-γ, 200 U/ml, and when they were used together, their concentrations were: LPS, 0.2 μg/ml; IFN-γ, 50 U/ml. Supernatants were collected 24 h after the addition of stimuli to measure TNF-α concentration using ELISA as described.
For orientation: ELISA stands for enzyme-linked immunosorbent assay.

Data set [7] deals with rat primary microglia, oligodendrocytes and C6 glial cells. In words: TNF-α-induced ceramide production in rat primary microglia, oligodendrocytes and C6 glial cells. It counts as cell-based. As to conditions: 10 mM NAC 1 h, TNF-α 50 ng/ml.
Data set [8] has as its system intracellular GSH in rat primary astrocytes. Briefly: Intracellular GSH / GSSG in rat primary astrocytes. The class given is cell-based. As to conditions: 10 mM NAC 1 h; TNF-α or IL-1β 50 ng/ml; diamide 0.5 mM. The protocol:
Measurement of reduced glutathione (GSH) concentration in rat primary astrocytes Concentration of intracellular GSH was measured using a colorimetric assay kit for GSH from RandD, USA. Briefly, 2×10^6 cells were homogenized in 500 μl of ice-cold 5% metaphosphoric acid and centrifuged at 3000 g for 10 min. Supernatants were used to assay GSH using 4-chloro-1-methyl-7-trifluoromethyl-quinolinium methylsulfate and 30% NaOH at 400 nm.
Measurement of GSH (Reduced Glutathione) and GSSG Oxidized Glutathione Concentration of intracellular reduced GSH was measured using a calorimetric assay kit for GSH from R & D Systems. Briefly, 2×10^6 cells were homogenized in 500 μl of ice-cold 5% metaphosphoric acid and centrifuged at 3000×g for 10 min. Supernatants were used to assay GSH using 4-chloro-1-methyl-7-trifluoromethylquinolinium methylsulfate and 30% NaOH at 400 nm. Concentration of GSSG was determined according to the method of Griffith (1980) after derivatization with 2-vinylpyridine for 30 min at room temperature.

The test system of data set [9] is ceramide production in rat primary astrocytes. Briefly: Degradation of sphingomyelin to ceramide (DAG kinase assay, HPTLC) in rat primary astrocytes. It counts as cell-based. To be noted: 10 mM NAC or 100 μM PDTC 1 h before TNF-α or IL-1β (50 ng/ml), diamide 0.5 mM or aminotriazole 5 mM. The gist of the method: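 About 1.0×10^6 cells were exposed to cytokines with or without antioxidants for various periods, then lipids were extracted. Sphingomyelin was separated by HPTLC and quantified by densitometry. Ceramide was phosphorylated with DAG kinase and [γ-^32P]ATP, and ceramide 1-phosphate was resolved by TLC and quantified by autoradiography/densitometry, expressed as arbitrary absorbance units or percent change.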

Setting [10] is: individual X-ALD patients, lovastatin 20 then 40 mg per day.

Several values for one entry are separate records, joined by “and”; a condition that tells them apart may be missing. Equal values may be shown once. Entries after “also recorded” stand apart in the source; their conditions may differ. Read-outs that look alike come from different tables or passages of the source.

Regarding `O=C([O-])Cc1ccccc1.[Na+]` [NaPA, sodium salt of phenylacetic acid], the pharmacologically attainable concentration in [1] is on record as 1 to 5 mM. For the same molecule, the “cytotoxicity at higher doses” value in data set [2] is listed as “cytotoxic to the X-ALD fibroblasts”.

On to `CC[C@H](C)C(=O)O[C@H]1C[C@@H](C)C=C2C=C[C@H](C)[C@H](CC[C@@H]3C[C@@H](O)CC(=O)O3)[C@H]21` [Lovastatin], for which the “adverse events leading to withdrawal” value in [3] is “persistent diarrhea and a marked elevation of serum creatine kinase levels”. Also, in [4] (five patients who continued the treatment), the “plasma levels of very-long-chain fatty acids (C26:0), words” value is “remained low and within the normal range for up to six months”. For the same molecule, in data set [4] (individual X-ALD patients (one line each), lovastatin 20 mg per day two weeks, then 40 mg per day, normal controls 0.24 ± 0.13), the “Plasma Very-Long-Chain Fatty Acids AT 1 MO” value was 0.42 micrograms per milliliter and 0.37 micrograms per milliliter and 0.5 micrograms per milliliter and 0.43 micrograms per milliliter and 0.24 micrograms per milliliter and 0.3 micrograms per milliliter and 0.44 micrograms per milliliter. In data set [4] (setting [10]), the “Plasma Very-Long-Chain Fatty Acids AT 2 MO” value is 0.41 micrograms per milliliter (2×) and 0.5 micrograms per milliliter and 0.42 micrograms per milliliter (2×) and 0.21 micrograms per milliliter and 0.34 micrograms per milliliter; the “Plasma Very-Long-Chain Fatty Acids AT 3 MO” value is 0.56 micrograms per milliliter and 0.3 micrograms per milliliter and 0.43 micrograms per milliliter and 0.21 micrograms per milliliter and 0.32 micrograms per milliliter and 0.36 micrograms per milliliter; the “Plasma Very-Long-Chain Fatty Acids AT 4 MO” value was 0.35 micrograms per milliliter and 0.34 micrograms per milliliter (2×) and 0.42 micrograms per milliliter and 0.22 micrograms per milliliter and 0.37 micrograms per milliliter; the “Plasma Very-Long-Chain Fatty Acids AT 5 MO” value was 0.17 micrograms per milliliter and 0.41 micrograms per milliliter (2×) and 0.26 micrograms per milliliter and 0.21 micrograms per milliliter. In addition, the “Plasma Very-Long-Chain Fatty Acids AT 6 MO” value in data set [4] (setting [10]) was 0.17 micrograms per milliliter (3×) and 0.16 micrograms per milliliter and 0.21 micrograms per milliliter. For the same molecule, in [5], the “viability (trypan blue exclusion)” value was “had no effect on the viability of astrocytes, microglia, or macrophages”. In addition, the “viability (trypan blue exclusion)” value in data set [5] (rat) is listed as “none of the compounds lovastatin, mevastatin, NaPA, TNF-α, IL-1β, IFN-γ, or LPS had a significant effect on the viability”.

In general, inhibition refers to the percentage by which the read-out fell short of the control. In the case of `CC(=O)N[C@@H](CS)C(=O)O` [NAC, N-acetyl cysteine], the TNF-α is recorded as 2.3 ± 0.2 ng/24 h/mg protein in data set [6] (LPS 0.2 μg/ml + IFN-γ 50 U/ml, 20 mM NAC or 100 μM PDTC 2 h before, 24 h); 1.6 ± 0.3 ng/24 h/mg protein in data set [6] (LPS 1.0 μg/ml, 20 mM NAC or 100 μM PDTC 2 h before, 24 h); 0.6 ± 0.2 ng/24 h/mg protein in [6] (antioxidant alone (20 mM NAC or 100 μM PDTC), no stimulus). For the same molecule, the inhibition at 20000 µM in data set [6] (LPS 0.2 μg/ml + IFN-γ 50 U/ml, 20 mM NAC or 100 μM PDTC 2 h before) amounted to 93%; in data set [6] (LPS 1.0 μg/ml, 20 mM NAC or 100 μM PDTC 2 h before), 92%. Moreover, in [7], the “TNF-α-induced production of ceramide” value was “potently blocked the TNF-α-induced production of ceramide in microglia, oligodendrocytes and C6 glial cells; also recorded: potently blocked the TNF-α-induced production of ceramide in microglia, oligodendrocytes, and C6 glial cells”. Further, the “intracellular level of GSH / GSSG” value in data set [8] was “intracellular level of GSH did not decrease when cells were stimulated with cytokines in presence of NAC; also recorded: lack of decrease of GSH”. In addition, the “degradation of sphingomyelin to ceramide / ceramide production” value in data set [9] was “potentially blocked the decrease in sphingomyelin as well as the increase in ceramide; also recorded: blocked diamide-mediated decrease in GSH level and induction of ceramide production; also recorded: blocked the ATZ-mediated increase in ceramide production”.
